Results: US7279161B2, “Factor IX/factor IXa activating antibodies and antibody derivatives” (Baxter Aktiengesellschaft, priority 1999, dated 2007)

Test system: FVIII inhibitor plasma
Assay: aPTT based one stage clotting assay in FVIII inhibitor plasma
Type: biochemical
Conditions: inhibitor plasma 8.1 Bethesda Units per ml
Experimental: […] […] […] After a 4 minute incubation, the reaction was started by the addition of 100 μl CaCl2 (25 mM). To ensure equal conditions, the experiments employing FVIII deficient plasma and FVIII inhibitor plasma were done side by side.
To assay for the procoagulant activity of peptide A1/3 in FVIII inhibitor plasma the following experiment was carried out. We performed a standard aPTT based one stage clotting assay, but instead of FVIII deficient plasma we employed FVIII inhibitor plasma.

Sequence: RRREGGGYYVNWYFDRRR [A1/3]
- average clotting time (1.25 μM, 2.2 nM FIXa): 91 s
- clotting time (1.25 μM, 2.2 nM FIXa, duplicate 1): 91.3 s
- clotting time (1.25 μM, 2.2 nM FIXa, duplicate 2): 91.4 s
- average clotting time (1.25 μM, w/o FIXa): 104 s
- clotting time (1.25 μM, w/o FIXa, duplicate 1): 104.5 s
- clotting time (1.25 μM, w/o FIXa, duplicate 2): 104.3 s
- average clotting time (2.5 μM, 2.2 nM FIXa): 90 s
- clotting time (2.5 μM, 2.2 nM FIXa, duplicate 1): 90.2 s
- clotting time (2.5 μM, 2.2 nM FIXa, duplicate 2): 90.5 s
- average clotting time (2.5 μM, w/o FIXa): 106 s
- clotting time (2.5 μM, w/o FIXa, duplicate 1): 106.1 s
- clotting time (2.5 μM, w/o FIXa, duplicate 2): 105.3 s
- average clotting time (5 μM, 2.2 nM FIXa): 82 s
- clotting time (5 μM, 2.2 nM FIXa, duplicate 1): 81 s
- clotting time (5 μM, 2.2 nM FIXa, duplicate 2): 82 s
- average clotting time (5 μM, w/o FIXa): 101 s
- clotting time (5 μM, w/o FIXa, duplicate 1): 101.5 s
- clotting time (5 μM, w/o FIXa, duplicate 2): 101.1 s
- average clotting time (7.5 μM, 2.2 nM FIXa): 70 s
- clotting time (7.5 μM, 2.2 nM FIXa, duplicate 1): 68.8 s
- clotting time (7.5 μM, 2.2 nM FIXa, duplicate 2): 70.9 s
- average clotting time (7.5 μM, w/o FIXa): 93 s
- clotting time (7.5 μM, w/o FIXa, duplicate 1): 93.7 s
- clotting time (7.5 μM, w/o FIXa, duplicate 2): 92.7 s
- average clotting time (10 μM, 2.2 nM FIXa): 62 s
- clotting time (10 μM, 2.2 nM FIXa, duplicate 1): 61.3 s
- clotting time (10 μM, 2.2 nM FIXa, duplicate 2): 61.8 s
- average clotting time (10 μM, w/o FIXa): 88 s
- clotting time (10 μM, w/o FIXa, duplicate 1): 88.4 s
- clotting time (10 μM, w/o FIXa, duplicate 2): 87.9 s
- average clotting time (12.5 μM, 2.2 nM FIXa): 61 s
- clotting time (12.5 μM, 2.2 nM FIXa, duplicate 1): 61 s
- clotting time (12.5 μM, 2.2 nM FIXa, duplicate 2): 60.2 s
- average clotting time (12.5 μM, w/o FIXa): 86 s
- clotting time (12.5 μM, w/o FIXa, duplicate 1): 85.8 s
- clotting time (12.5 μM, w/o FIXa, duplicate 2): 85.3 s
